This is an account of results in patent publication US5776959A, “Anticonvulsant and anxiolytic lactam and thiolactam derivatives” (priority 1995, dated 1998).

A word on the ED50: it is the dose that gives a 50% effect, or the effect in half of the subjects. What is called TD50 is the dose at which the toxic effect under study appears in half of the subjects.

For data set [1], the system named is pentylenetetrazol (PTZ) seizures in mice. The data set is described as follows: Pentylenetetrazol Seizure Threshold Test (PTZ). In kind it is in vivo, mouse (female CF-1). The settings on record: Mus musculus, 0.5 h, ip, 30 min before pentylenetetrazol 85 mg/kg ip, read-out: Convulsant Challenge ED50, PTZ. The protocol:
Pentylenetetrazol Seizure Threshold Test (PTZ)
Anticonvulsant screening was accomplished by methods based on those of Swinyard and Woodhead using female CF-1 strain mice. […] The animals were placed in isolation cages and observed for the next 30 minutes for the presence or absence of a seizure. A threshold convulsion is defined as one episode of clonic spasms that persists for at least a 5-sec period.

The test system of data set [2] is maximal electroshock (MES) seizures in mice. The data set is described as follows: Maximal Electroshock Seizure Test (MES). The settings on record: Mus musculus, 0.5 h, ip, 30 min before electroshock 50 mA 0.2 sec, read-out: Convulsant Challenge ED50, MES. It counts as in vivo. As for the experimental part:
Maximal Electroshock Seizure Test (MES)
Test compounds were dissolved in 30% polyethylene glycol and given by intraperitoneal (ip) injections in a volume of 0.01 mL/g of body weight. […] Corneal electrodes were applied to the eyes, and an electrical stimulus consisting of a 60-Hz alternating current of 50 mA was delivered for 0.2 sec. The animals were held by hand and released at the time of stimulation for observation of the seizure. Abolition of the hindleg tonic extension component was taken as the endpoint for this test.

Data set [3] in a line: Rotorod Test for Toxicity (neurotoxicity). It counts as in vivo, mouse. To be noted: mouse, in vivo, mice, ip, 30 min. The protocol:
(§1) Rotorod Test for Toxicity
(§2) This test is used in mice to assess neurotoxicity. Mice were placed on a 1 in. diameter rod, which rotates at 6 rpm, and tested for maintenance of their equilibrium for 10 min. All mice were pre-tested before a test substance is given. Test compounds are dissolved in 30% polyethylene glycol and given by intraperitoneal (ip) injections in a volume of 0.01 mL/g of body weight. […] This test also measures sedative effect of the compound tested. […] 21, 1985.

Data set [4] deals with sedation in mice. To be noted: 100 mg/kg; cited from earlier work.
Data set [5] concerns GABAA receptor. The data set is described as follows: Potentiation of GABA currents in cultured rat hippocampal neurons (GABAA receptor electrophysiology test, whole-cell patch clamp). It counts as cell-based, rat (Sprague-Dawley). A general note: In patch-clamp work, channel activity is measured electrically.
Protocol: Hippocampal Cell Culture Methods
Under halothane anaesthesia, 1 day old female Sprague-Dawley rats were sacrificed by rapid decapitation and the hippocampi were dissected, minced and incubated in 3 mL of Leibovitz's L-15 containing 1 mg/mL papain and 0.2 mg/mL bovine serum albumin (BSA) for 20 min. at 37° C. The papain solution was removed and the hippocampi were triturated with pasteur pipettes in growth medium. The resulting suspension was centrifuged through 2 mL of medium containing 10 mg/mL trypsin inhibitor and 10 mg/mL BSA. The cells were resuspended into growth medium and plated, 2.5×10^5 cells/dish, on a monolayer of cortical glial cells in 35 mm plastic culture dishes. The culture dishes were pretreated with poly-L-lysine followed by plating of glial cells harvested from the cortices of 2-6 day postnatal rats four days prior to neuron plating. […]
Medium in the culture dishes was replaced with an extracellular solution containing: 140 mM NaCl, 3 mM KCl, 10 mM HEPES, 5 mm MgCl2, and 5.5 mM glucose. Neurons were recorded using the whole cell configuration of the patch clamp technique, (Hamil P O, Marty A, Neher E, Sakmann B, Sakmann J F (1981) "Improved patch-clamp techniques for high resolution current recordings from cells and cell-free membrane patches" Pfluegers Arch., 391, 85-100.) and the neuronal membrane was clamped to a potential of 130 mV. […]
For data set [6], the system named is neurotoxicity in mice. The data set is described as follows: Rotorod Test for Toxicity (neurotoxicity). It counts as in vivo, mouse. The settings on record: ip, 30 min. The protocol: as §1, §2
(The rotarod test checks motor coordination on a turning rod.)

Data set [7] deals with anxiety in mice (plus-maze). The data set is described as follows: Anxiolytic plus-maze test. To be noted: for Time spent on Plus-Maze Open Arms (% of Control): mice, ip, 30 min, 5 min test. In kind it is in vivo, mouse (male NIH Swiss). The source says: A modification of the plus-maze test (Lister R G (1987) "The use of a plus-maze to measure anxiety in the mouse" Psychopharmacology, 92, 180-185.) was used to measure the anxiolytic activity of the compounds of this invention in mice. The plus-maze apparatus used in the test consisted of four 30 cm×5 cm arms, two of which were enclosed by 16 cm high walls while the other two were unwalled. The four arms radiated out from a 5×5 cm central platform. The entire maze was elevated 34 cm on legs. The floor parts of the maze were made of wood painted black. The walls were clear plexiglass.
Male mice of the NIH Swiss strain are used in the test which is carried out in a room with no distractions. Test compounds were dissolved in 30% polyethylene glycol and given by intraperitoneal (ip) injections in a volume of 0.01 mL/g of body weight. […] During each 5 minute test, the number of entries to open arms and closed arms and the amount of time spent on each were recorded. A mouse has entered an arm when all four feet are on the arm. Each mouse was used only once. The anxiolytic dose of a test compound is that dose which causes a significant increase in the amount of time the test mouse spends in the open arms of the plus-maze in comparison to the amount of time a control mouse not receiving a test compound spends in the open arms of the maze.

Data set [8] is described as follows: Convulsant activity (observation of seizures in injected mice). The settings on record: mouse, in vivo, read-out: Convulsive Activity CD50. As for the experimental part: Convulsant activity of test compounds is assessed by monitoring injected mice by monitoring seizures by observing for the onset of myoclonic twitches, generalized clonic seizures and tonic seizures.

The subject of data set [9] is convulsant seizures. The settings on record: in vivo; cited from earlier work.

In the case of `CCC1(CC)CCCNC1=O` [3,3-Diethyl-2-piperidinone], the results for the ED50 in data set [1] and in [2] were 39 mg/kg and 56 mg/kg, respectively. For the same compound, the TD50 at 0.5 h in data set [3] is 177 mg/kg. In addition, in [4], the “sedative activity reported in literature” value was “weak sedative activity”.

On to `O=C1CCCCN1` [2-Piperidinone, reference compound], for which the median effective dose (ED50) in [1] is more than 600 mg/kg. In addition, in data set [3], the TD50 at 0.5 h was more than 600 mg/kg.

As to `CCC1(CC)CCNC1=O` [3,3-Diethyl-2-pyrrolidinone], the “% Potentiation Relative to Control (N)” value in [5] (compound 1 mM, 3 μM GABA, mean ± SEM, percent of control response (100%)) is on record as 274 ± 64%. For the same compound, the “enhancement of GABA-mediated chloride ion currents” value in data set [5] (cultured rat hippocampal neurons) was “more effectively than the previously described α-ethyl-α-methyl-γ-thiobutyrolactone”. The ED50 in data set [1] came to 46 mg/kg; in data set [2], 174 mg/kg. Moreover, the “Toxicity TD50” value in [6] is reported as 260 mg/kg. For the same compound, in data set [7] (compared to α-ethyl-α-methyl-γ-thiobutyrolactone, Table 3), the “anxiolytic activity” value is reported as “significantly stronger anxiolytic activity”. In addition, the “Time spent on Plus-Maze Open Arms (% of Control)” value was determined as 179% in data set [7] (dose 100 mg/kg) and 253% in data set [7] (dose 175 mg/kg).

For `CCC1(C)CCCNC1=O` (stereo not drawn) [3-Ethyl-3-Methyl-2-Piperidinone, 3-ethyl-3-methyl-2-piperidinone], the results for the 50% effective dose (ED50) in [1] and in data set [2] were 162 mg/kg and 198 mg/kg, respectively. Besides, in data set [3], the TD50 at 0.5 h was determined as 382 mg/kg.

With `O=C1NCCCC1Cc1ccccc1` (stereo not drawn) [3-Phenylmethyl-2-piperidinone, 3-phenylmethyl-2-piperidinone], the figures for the 50% effective dose (ED50) in [1] and in data set [2] were 85 mg/kg and 42 mg/kg, respectively. In data set [3], this compound gave a TD50 at 0.5 h of 294 mg/kg.

`CCC1(C)CCN(C)C1=O` (stereo not drawn) [1,3-Dimethyl-3-ethyl-2-pyrrolidinone]: the median effective dose (ED50) in data set [1] was 259 mg/kg. In [3], this compound yielded a TD50 at 0.5 h of 520 mg/kg.

On to `CCC1CCCNC1=O` (stereo not drawn) [3-Ethyl-2-Piperidinone, reference compound], for which the median effective dose (ED50) in data set [1] stood at 339 mg/kg. Further, the TD50 at 0.5 h in data set [3] was determined as 382 mg/kg.

Consider `CC1CCCNC1=O` (stereo not drawn) [3-Methyl-2-Piperidinone, reference compound], for which the median effective dose (ED50) in [1] and in [2] was more than 600 mg/kg in each case. For the same compound, the TD50 at 0.5 h in [3] was more than 600 mg/kg.

On to `CC1(C)CCSC1=O` [α,α-dimethyl-y-thiobutyrolactone], for which the ED50 in data set [1] was more than 500 mg/kg.

Take `CC1(C)CNC(=O)C1(C)C` [3,3,4,4-Tetramethyl-2-pyrrolidinone]: in [8], the CD50 (convulsant dose, 50%) came out at 32 mg/kg.

For the compound `CCC1(Cc2ccccc2)CCCNC1=O` (stereo not drawn) [3-Ethyl-3-phenylmethyl-2-piperidinone, 3-ethyl-3-phenylmethyl-2-piperidinone], the figures for the ED50 in data set [1] and in [2] were 61 mg/kg and 79 mg/kg, respectively. Also, in data set [3], the TD50 at 0.5 h is 102 mg/kg.

Consider `CCC1(C)CNC(=O)C1` (stereo not drawn) [4-Ethyl-4-Methyl-2-pyrrolidinone, 4-ethyl-4-methyl-2-pyrrolidinone, reference compound], for which the 50% effective dose (ED50) is 327 mg/kg in [1] and more than 300 mg/kg in data set [2]. In data set [3], this compound yielded a TD50 at 0.5 h of more than 300 mg/kg. Further, the “anticonvulsant activity reported in literature” value in [9] is “much less active”.

For `CCC1(CC)CC(C)(C)NC1=O` [3,3-Diethyl-5,5-dimethyl-2-pyrrolidinone], the CD50 (convulsant dose, 50%) in data set [8] turned out to be 75 mg/kg.

On to `CC1(Cc2ccccc2)CCCNC1=O` (stereo not drawn) [3-Methyl-3-phenylmethyl-2-piperidinone, 3-methyl-3-phenylmethyl-2-piperidinone], for which the median effective dose (ED50) worked out at 56 mg/kg in [1] and 49 mg/kg in data set [2]. The TD50 at 0.5 h in data set [3] amounted to 131 mg/kg.

Turning to `O=C1CCCN1` [2-Pyrrolidinone, reference compound], the figures for the median effective dose (ED50) in data set [1] and in [2] were more than 900 mg/kg and more than 600 mg/kg, respectively. The “Toxicity TD50” value in [6] is more than 900 mg/kg.

As to `CCC1CC(C)(C)NC1=O` (stereo not drawn) [3-Ethyl-5,5-dimethyl-2-pyrrolidinone], the CD50 (convulsant dose, 50%) in [8] is 106 mg/kg.

For the compound `CC1(C)CCNC1=O` [3,3-Dimethyl-2-pyrrolidinone, 3,3-dimethyl-2-pyrrolidinone, reference compound], the figures for the 50% effective dose (ED50) in data set [1] and in data set [2] were 708 mg/kg and more than 600 mg/kg, respectively. In [3], this compound came in with a TD50 at 0.5 h of 900 mg/kg. Moreover, the “anticonvulsant activity reported in literature” value in data set [9] is reported as “no anticonvulsant activity”.

For `CC1(C)CNC(=O)C1` [4,4-Dimethyl-2-pyrrolidinone, reference compound], in data set [1], the ED50 is 600 mg/kg. In [3], this compound showed a TD50 at 0.5 h of more than 600 mg/kg.

Turning to `O=C1NCCC1Cc1ccccc1` (stereo not drawn) [3-Phenylmethyl-2-pyrrolidinone, 3-phenylmethyl-2-pyrrolidinone], the ED50 in [1] worked out at 71 mg/kg; in [2], 41 mg/kg. For the same compound, the “Toxicity TD50” value in [6] was found to be 144 mg/kg.

As to `CC1(C)CCC(=O)N1` [5,5-Dimethyl-2-pyrrolidinone], in [8], the CD50 (convulsant dose, 50%) stood at 387 mg/kg.

For the compound `CC1CCNC1=O` (stereo not drawn) [3-Methyl-2-pyrrolidinone, reference compound], the 50% effective dose (ED50) in [1] was more than 900 mg/kg; in [2], more than 750 mg/kg. This compound yielded a TD50 at 0.5 h in [3] of approximately 900 mg/kg.
